Source: patent US20240208945A1, “6-CARBAMATE SUBSTITUTED HETEROARYL RING DERIVATIVES” (MEDSHINE DISCOVERY INC., priority 2021, published 2024)
Where a name gives a salt, the structure may show the parent alone.

Experiments:
[1] = biological target: binding of KRAS(G12C) to SOS1 (Homo sapiens (Human), UniProt Q07889); assay: KRAS(G12C) and SOS1 binding assay (HTRF); conditions: 25° C., 60 minutes
Source text: The small molecular compound binds to the catalytic site of SOS1, thus inhibiting the binding of SOS1 to KRAS (G12C). When the binding of fluorescently labeled SOS1 protein to fluorescently labeled KRAS (G12C) protein is inhibited, the emitted fluorescence changes. The ability of small molecules to prevent the binding of SOS1 to KRAS (G12C) can be tested by detecting changes in fluorescence. A homogeneous time-resolved fluorescence (HTRF) binding assay was used to detect the ability of the compounds of the present disclosure to inhibit the binding of SOS1 to KRAS (G12C).
KRAS (G12C) protein was expressed and purified by Wuhan AtaGenix Biotechnology Co., Ltd., SOS1 exchange domin (564-1049) protein (Human recombinant) was purchased from Cytoskeleton, Mab Anti 6HIS-XL665 and Mab Anti GST-Eu cryptate were purchased from Cisbio. Multimode microplate reader Nivo5 was purchased from PerkinElmer.
1× buffer preparation (ready-to-use): Hepes: 5 mM; NaCl: 150 mM; EDTA: 10 mM; Igepal: 0.0025%; KF: 100 mM; DTT: 1 mM; BSA: […];
The test compounds were 5-fold diluted with DMSO using a multi-channel pipette to the 8th concentration, i.e., diluted from 1 mM to 0.064 μM.
The test compound was diluted by gradient with 1× buffer to a working solution with 2% DMSO. 5 μL/well of the working solution was added to corresponding wells, and the corresponding concentration gradient was 20 μM to […]. Duplicate experiment was set. The working solution was centrifuged at 1000 rpm for 1 minute.
A mixed working solution of KRAS(G12C) (200 nM) and Mab Anti GST-Eu cryptate (1 ng/μL) was prepared with 1× buffer, and the mixed working solution was incubated at 25° C. for 5 minutes, and 2.5 μL/well of the mixed working solution was added to the corresponding wells.
A mixed working solution of SOS1 (80 nM) and Mab Anti 6HIS-XL665 ([…]) was prepared with 1× buffer, and 2.5 μL/well of the mixed working solution was added to the corresponding wells. 2.5 μL of Mab Anti 6HIS-XL665 ([…]) diluent was added to blank wells. At this time, the final concentration gradient of the compound was diluted from 10 μM to 0.64 nM, KRAS(G12C) ([…]), MAb Anti GST-Eu cryptate (0.25 ng/μL), SOS1 (20 nM), Mab Anti 6HIS-XL665 (2 g/μL), the reaction system was placed at 25° C. for 60 minutes. After the reaction was completed, the multimode microplate reader was used to read HTRF.
Using the equation (Sample−Min)/(Max−Min)×100% to convert the raw data into inhibition rate, the IC50 value might be obtained by curve fitting with four parameters (obtained by “log (inhibitor) vs. response—Variable slope” mode in GraphPad Prism).

p-ERK in DLD-1 cells = assay: p-ERK inhibitory activity test in DLD-1 cells (HTRF Phospho-ERK1/2 kit); type: cell-based; conditions: Homo sapiens, 1 hour incubation
Method: DLD-1 cells were purchased from Nanjing Cobioer; 1640 medium was purchased from Biological Industries; fetal bovine serum was purchased from Biosera; Advanced Phospho-ERK1/2 (THR202/TYR204) KIT was purchased from Cisbio.
DLD-1 cells were seeded in a transparent 96-well cell culture plate, with 80 μL of cell suspension per well and 8000 DLD-1 cells per well. The cell plate was incubated in a carbon dioxide incubator at 37° C. overnight; • the test compound was diluted to 2 mM with 100% DMSO as the first concentration, and then 5-fold diluted to the 8th concentration with a pipette, that is, diluted from 2 mM to 0.026 μM. 2 μL of compound was added to 78 μL of cell starvation medium. After mixing well, 20 μL of compound solution was taken and added to the corresponding cell plate wells, and the cell plate was put back to the carbon dioxide incubator to continue to incubate for 1 hour; at this time, the concentration of the compound was from 10 μM to 0.128 nM, and the concentration of DMSO was 0.5%; • after the incubation was completed, the cell supernatant was discarded, and 50 μL of cell lysate was added to each well, and incubated at room temperature for 30 minutes with shaking; • Phospho-ERK1/2 Eu Cryptate antibody and Phospho-ERK1/2 d2 antibody were 20-fold diluted using Detection buffer; • 16 μL of cell lysate supernatant per well was put into a new 384 white microplate, then 2 μL of Phospho-ERK1/2 Eu Cryptate antibody diluent and 2 μL of Phospho-ERK1/2 d2 antibody diluent were added thereto and incubated at room temperature for 4 hours; • after the incubation was completed, a multimode microplate reader was used to read HTRF excitation: 320 nm, emission: 615 nm, 665 nm.
Using the equation (Sample−Min)/(Max−Min)*100% to convert the raw data into inhibition rate, the IC50 value might be obtained by curve fitting with four parameters (obtained by “log (inhibitor) vs. response—Variable slope” mode in GraphPad Prism). • Max well: Positive control well reading is 1× lysate • Min well: Negative control well reading is 0.5% DMSO cell well cell lysate

[2] = Pharmacokinetic evaluation in Balb/c mice (IV and oral); type: in vivo; conditions: male, mouse, plasma; for Cmax: IV 10 mg/kg and oral 50 mg/kg study, read-out: Peak concentration Cmax; for bioavailability / clearance / half-life / Vd: IV 10 mg/kg; for bioavailability / AUC(0-t): PO 50 mg/kg; for bioavailability: read-out: Bioavailability F; for clearance: read-out: Clearance rate CL; for half-life: read-out: Half life T1/2 (IV) (converted); for Vd: read-out: Volume of distribution at steady state Vdss; for AUC(0-t): read-out: Area under drug-time curve AUC0-last PO
Method: Balb/c mice (male, Beijing Vital River Laboratory Animal Technology Co., Ltd.)
The pharmacokinetic characteristics of the compound in rodents after intravenous injection and oral administration were tested according to the standard protocol. In the experiment, the candidate compound was formulated into clear solutions, and a single intravenous injection and oral administration were given to mice. The vehicle for intravenous injection and oral administration was a mixed vehicle composed of 5% dimethyl sulfoxide, 5% solutol, and 90% water. In this project, four male Balb/c mice were used, and two mice were administered intravenously at a dose of 10 mg/kg. Plasma samples were collected at 0.083, 0.25, 0.5, 1, 2, 4, 8, and 24 hours after administration. The other two mice were administered orally by gavage at a dose of 50 mg/kg. Plasma samples were collected at 0.25, 0.5, 1, 2, 4, 6, 8, 12, and 24 hours after administration. Blood samples were placed on ice after collection and centrifuged to separate plasma within 1 hour (centrifugation conditions: 6000 g, 3 minutes, 2 to 8° C.). Plasma samples were stored in a −80° C. refrigerator before analysis. The plasma concentration was quantitatively analyzed by LC-MS/MS analysis method, and the pharmacokinetic parameters were calculated, such as peak concentration (Cmax), clearance rate (CL), half-life (T1/2), volume of distribution at steady state (Vdss), area under drug-time curve (AUC0-last), bioavailability (F).

Sequence of binding of KRAS(G12C) to SOS1 (Q07889 564-1049, stated change not applied): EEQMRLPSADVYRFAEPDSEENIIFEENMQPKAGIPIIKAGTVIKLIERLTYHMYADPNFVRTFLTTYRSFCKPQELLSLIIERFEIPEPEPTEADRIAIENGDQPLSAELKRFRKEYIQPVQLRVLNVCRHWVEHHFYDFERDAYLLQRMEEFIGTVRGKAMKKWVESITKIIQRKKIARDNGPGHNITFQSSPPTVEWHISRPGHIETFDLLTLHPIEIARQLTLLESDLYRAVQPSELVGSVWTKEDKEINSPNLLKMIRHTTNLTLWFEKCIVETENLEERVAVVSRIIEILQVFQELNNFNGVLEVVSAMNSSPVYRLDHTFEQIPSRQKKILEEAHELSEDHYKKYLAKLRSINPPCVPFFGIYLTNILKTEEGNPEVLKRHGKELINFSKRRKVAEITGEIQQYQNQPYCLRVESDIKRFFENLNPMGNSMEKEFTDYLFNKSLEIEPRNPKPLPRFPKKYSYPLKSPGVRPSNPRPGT

SMILES | IC50 [1] [µM] | IC50 (p-ERK in DLD-1 cells) [µM] | other results
COc1cc2nc(C)nc(N[C@H](C)c3cc(N)cc(C(F)(F)F)c3)c2cc1OC(=O)N1CCN(C)CC1 [Compound 2] | 0.11 | 0.122 | 
COc1cc2nc(C)nc(N[C@H](C)c3cc(N)cc(C(F)(F)F)c3)c2cc1OC(=O)N1CCC2(CCOC2)CC1 [Compound 7] | 0.0928 |  | 
COc1cc2nc(C)nc(N[C@H](C)c3cc(N)cc(C(F)(F)F)c3)c2cc1OC(=O)N1CCN(C2COC2)CC1 [Compound 9] | 0.0836 |  | 
COc1cc2nc(C)nc(N[C@H](C)c3cc(N)cc(C(F)(F)F)c3)c2cc1OC(=O)N1CCN2CCCC2C1 (stereo partly drawn) [Compound 10] |  | 0.0862 | 
COc1cc2nc(C)nc(N[C@H](C)c3cc(N)cc(C(F)(F)F)c3)c2cc1OC(=O)N1CCC2(CC1)CO[C@H](C)[C@@H]2N [Compound 11] | 0.0786 |  | 
COc1cc2nc(C)nc(N[C@H](C)c3cc(N)cc(C(F)(F)F)c3)c2cc1OC(=O)N1CCCN(C)CC1C (stereo partly drawn) [Compound 13] | 0.0704 | 0.282 | 
COc1cc2nc(C)nc(N[C@H](C)c3cccc(C(F)(F)C(C)(C)O)c3F)c2cc1OC(=O)N1CCN(C2COC2)CC12CC2 [Compound 24] | 0.0479 |  | 
COc1cc2nc(C)nc(N[C@H](C)c3cccc(C(F)F)c3F)c2cc1OC(=O)N1CCNCC12CC2 [Compound 25] | 0.0861 |  | 
COc1cc2nc(C)nc(N[C@H](C)c3cccc(C(F)F)c3F)c2cc1OC(=O)N1CCN(C2COC2)CC12CC2 [Compound 26] | 0.0659 | 0.283 | 
COc1cc2nc(C)nc(N[C@H](C)c3cc(N)cc(C(F)(F)F)c3F)c2cc1OC(=O)N1CCN(C)CC1C (stereo partly drawn) [Compound 27] | 0.0406 | 0.112 | 
COc1cc2nc(C)nc(N[C@H](C)c3cc(N)cc(C(F)(F)F)c3)c2cc1OC(=O)N1CCN(C)CC1C (stereo partly drawn) [Hydrochloride of compound 4] | 0.0711 | 0.113 | 
CCN1CCN(C(=O)Oc2cc3c(N[C@H](C)c4cc(N)cc(C(F)(F)F)c4)nc(C)nc3cc2OC)CC1 [Hydrochloride of compound 5] | 0.0773 | 0.219 | 
COc1cc2nc(C)nc(N[C@H](C)c3cc(N)cc(C(F)(F)F)c3)c2cc1OC(=O)N1CCNCC1 [Hydrochloride of compound 6] | 0.0876 |  | 
COc1cc2nc(C)nc(N[C@H](C)c3cc(N)cc(C(F)(F)F)c3)c2cc1OC(=O)N1CCC(N(C)C)CC1 [Hydrochloride of compound 8] | 0.0737 |  | 
COc1cc2nc(C)nc(N[C@H](C)c3cccc(C(F)(F)C4CCCO4)c3F)c2cc1OC(=O)N1CCN(C)CC1C (stereo partly drawn) [Hydrochloride of compound 15] | 0.149 |  | 
COc1cc2nc(C)nc(N[C@H](C)c3cccc(C(F)(F)CO)c3)c2cc1OC(=O)N1CCN(C)CC1C (stereo partly drawn) [Hydrochloride of compound 16] | 0.0596 | 0.222 | 
COc1cc2nc(C)nc(N[C@H](C)c3cccc(C(F)(F)CO)c3F)c2cc1OC(=O)N1CCN(C)CC1C (stereo partly drawn) [Hydrochloride of compound 18] | 0.0234 | 0.243 | 
COc1cc2nc(C)nc(N[C@H](C)c3cccc(C(F)F)c3F)c2cc1OC(=O)N1CCN(C)CC1C (stereo partly drawn) [Hydrochloride of compound 19] | 0.105 |  | 
COc1cc2nc(C)nc(N[C@H](C)c3cccc(C(F)(F)C(C)(C)O)c3F)c2cc1OC(=O)N1CCN(C)C[C@@H]1C [Hydrochloride of compound 28] | 0.0145 | 0.0915 | Cmax [2]: 4.59 µM; bioavailability [2]: 98.8%; clearance [2]: 36.7 mL/min/kg; half-life [2]: 6.01 h; Vd [2]: 11.5 L/kg; AUC(0-t) [2]: 37.5 µM·h
COc1cc2nc(C)nc(N[C@H](C)c3cccc(C(F)(F)C(C)(C)O)c3F)c2cc1OC(=O)N1CCN(C)C[C@H]1C [Hydrochloride of compound 29] | 0.0147 | 0.135 | Cmax [2]: 10.9 µM; bioavailability [2]: 91.2%; clearance [2]: 18.7 mL/min/kg; half-life [2]: 3.46 h; Vd [2]: 4.15 L/kg; AUC(0-t) [2]: 74.6 µM·h
